In patent US9688709B2, “Phosphaplatins and their use for treatment of cancers” (OHIO UNIVERSITY, priority 2010, dated 2017):
Where “and” joins values, the source holds several entries; their conditions need not be identical. Identical values can stand only once.

What was measured:
[1] = system: A2780/C30, epithelial human ovarian cancer resistant to 30 μM cisplatin and 100 μM carboplatin; assay: Clonogenic assay, A2780/C30 cells; type: cell-based; conditions: A2780/C30, 1 hour treatment
Experimental: (§1) To determine the relative activities of the phosphaplatins of formulas (I)-(VI), each stereoisomer was tested through in vitro clonogenic assays using human ovarian cancer cells, human colon cancer cells, and human head-and-neck cancer cells. […] Cells were cultured on monolayer using RPMI 1640 supplemented with 10% fetal bovine serum, 2 mM glutamine, 0.25 units/mL insulin and penicillin/streptomycin (100 units/mL) in a 37° C. incubator continuously gassed with 5% CO2. Cells were subcultured using 0.0625% trypsin in HBSS to maintain cells in exponential cell growth.
(§2) Half-maximal inhibitory concentration (IC50) values were determined using a clonogenic assay or a CyQUANT® cell proliferation assay. In the clonogenic assay, for example, 500-700 A2780 cells from a single cell suspension were plated onto 60 mm petri plates 24 hours before treatment with the platinum compounds to permit cell attachment. On the day of treatment with the platinum compounds described in the above Synthesis Examples, the medium was decanted and was replaced with the appropriate concentration of phosphaplatin compounds (from 50 nM to 75 μM) at three different time points, […] Triplicate plates were set up for each platinum compound concentration. After the 24-hour treatment, the medium containing the platinum compounds was decanted and was replaced with fresh medium. These plates were returned to the 37° C. incubator for 7 days for colony formation.
(§3) In TABLES 1-5, except where actual error values are given, each reported value is assumed to have an error not greater than ±15% of the reported value; and unless otherwise specified, the data were obtained from clonogenic assays.
(§4) In further tests, cells were treated with the platinum compounds continuously for 7 days. Colonies were fixed and stained using 2% crystal violet in 4% formaldehyde. Colonies containing more than 50 cells were scored. The number of scored colonies from the triplicate plates was averaged, and this number was divided by the number of cells plated to obtain a value for the fraction of cells forming colonies. These values for fraction of cells forming colonies then were corrected for plating efficiency by dividing the fraction by the number of cells forming colonies in plates that were not treated with platinum compounds. […] Similar data for OVCAR-10 are shown in FIG. 3, comparing (1R,2R)-pyrodach-2 (RD2), (1R,2R)-pyrodach-4 (RD4), trans-(±)-pyrodach-2 (T-D2), and trans-(±)-pyrodach-4 (T-D4).

BAX = assay: Western blot protein expression, BAX; type: in vivo; conditions: treated mice, exposure 1 hour to 12 hours
Experimental: (§5) Following 12% SDS-PAGE electrophoresis, proteins were transferred to a PVDF membrane using 100 V for 1.5 hours at 4° C. Membranes were washed with 0.05% TWEEN-20 and Tris-buffered saline (TBST) solution and blocked with 5% non-fat dry milk and 1% BSA. The membrane was incubated with a 1:25,000 dilution of primary antibody of the protein of interest over night at 4° C. Membranes were washed with 0.05% TBST followed by incubating in the corresponding HRP-conjugated antibody (1:40,000 dilution). The proteins were visualized using ECL-Advance chemiluminescent system (Amersham-GE Healthcare Biosciences, Pittsburgh, Pa.).
(§6) The phosphaplatins activate a number of proapototic and tumor suppression genes such as FAS, PTEN, PUMA, BAX and others. Experiments through Western Blots confirm high levels of protein expressions transcribed by these genes. […] Likewise, BCL2 was down regulated as much as 70% by RR-pyrodach-2 and RR-pyrodach-4. Additionally, FAS, FADD, and platinum compound were co-localized in the lipid rafts. These activations are also associated with the increased expression of Sphingomyelinase (Smase), as verified by the increased protein expression of SMase.

VEGFR = assay: Western blot protein expression, VEGFR; type: in vivo; conditions: treated mice, exposure 1 hour to 12 hours
Experimental: as §5, §6

FAS = assay: Western blot protein expression, FAS; type: in vivo; conditions: treated mice, exposure 1 hour to 12 hours
Experimental: as §5, §6

[2] = system: A2780, epithelial human ovarian cancer; assay: Clonogenic assay, A2780 cells; type: cell-based
Experimental: as §1
as §2, with “After the 24-hour treatment, the medium containing the platinum compounds was decanted and was replaced with fresh medium.” left out
as §3, §4

[3] = system: OVCAR-8, human ovarian cancer cells with dysfunctional p53; assay: CyQUANT cell proliferation assay, OVCAR-8; type: cell-based; conditions: OVCAR-8, 72-hour treatment
Description: (§7) In these experiments, desired number of cells were exposed to phosphaplatins of different concentrations for 72 hr. before measuring the DNA content. Because the DNA content is proportional to the number of surviving cells, the assay provides a quantitative measure of proliferating cells. The technique is described in detail in Jones et al., “Sensitive determination of cell number using the CyQUANT cell proliferation assay,” J. Immunol. Methods, vol. 254, pp. 85-98 (2001).
as §3

PUMA = assay: Western blot protein expression, PUMA; type: in vivo; conditions: treated mice, exposure 1 hour to 12 hours
Experimental: as §5, §6

[4] = system: SKMEL-2, human skin melanoma cancer cells; assay: CyQUANT cell proliferation assay, SKMEL-2; type: cell-based; conditions: SKMEL-2, 72-hour treatment
Description: as §7, §3

[5] = system: A549, human lung adenocarcinoma cancer cells; assay: CyQUANT cell proliferation assay, A549; type: cell-based; conditions: A549, 72-hour treatment
Description: as §7, §3

[6] = system: OVCAR-10, human ovarian cancer resistant to cisplatin treatment; assay: Clonogenic assay, OVCAR-10 cells; type: cell-based; conditions: OVCAR-10, 24 hours treatment
Experimental: as §1
Half-maximal inhibitory concentration (IC50) values were determined using a clonogenic assay or a CyQUANT® cell proliferation assay. In the clonogenic assay, for example, 500-700 A2780 cells from a single cell suspension were plated onto 60 mm petri plates 24 hours before treatment with the platinum compounds to permit cell attachment. On the day of treatment with the platinum compounds described in the above Synthesis Examples, the medium was decanted and was replaced with the appropriate concentration of phosphaplatin compounds (from 50 nM to 75 μM) at three different time points, and the treated cells were placed back into the 37° C. incubator for 24 hours. Triplicate plates were set up for each platinum compound concentration. After the 24-hour treatment, the medium containing the platinum compounds was decanted and was replaced with fresh medium. These plates were returned to the 37° C. incubator for 7 days for colony formation.
as §3, §4

[7] = system: PC-3, human metastatic prostate cancer cells; assay: CyQUANT cell proliferation assay, PC-3; type: cell-based; conditions: PC-3, 72-hour treatment
Description: as §7, §3

[8] = system: U251, human glioblastoma cancer cells; assay: CyQUANT cell proliferation assay, U251; type: cell-based; conditions: U251, 72-hour treatment
Description: as §7, §3

Ovarian tumor = Ovarian tumor inflicted SCID mice, tumor growth and log cell kill; type: in vivo
Experimental: Ovarian tumor inflicted SCID mice were treated with trans-(±)-pyrodach-2 and trans-(±)-pyrodach-4 at various doses up to 40 mg/kg, and tumor growth was monitored up to six weeks or until the tumor size became so large that these animals were sacrificed. The tumor growth or regression by the phosphaplatin-treated mice was then compared with cisplatin-treated mice (7 mg/kg) and carboplatin-treated mice (60 mg/kg). Three doses of platinum compounds were administered on alternate days when the tumor grew to a size of at least 100 mm^3 size. Gross and net log cell kill values were then calculated using the formulas:
[formula] [formula] where T and C are median times in days to grow tumor to a specified size, and Td is the median time in days to double the size of the tumor in control animals.

[9] = system: OVCAR-10, human ovarian cancer resistant to cisplatin treatment; assay: CyQUANT cell proliferation assay, OVCAR-10; type: cell-based; conditions: OVCAR-10, 72-hour treatment
Description: as §7, §3

[10] = system: OVCAR-5, advanced human ovarian cancer cells; assay: Clonogenic assay, OVCAR-5 cells; type: cell-based; conditions: OVCAR-5, 24 hours treatment
Experimental: as §1
(§8) Half-maximal inhibitory concentration (IC50) values were determined using a clonogenic assay or a CyQUANT® cell proliferation assay. In the clonogenic assay, for example, 500-700 A2780 cells from a single cell suspension were plated onto 60 mm petri plates 24 hours before treatment with the platinum compounds to permit cell attachment. […]
(§9) In further tests, cells were treated with the platinum compounds continuously for 7 days. […] Colonies containing more than 50 cells were scored. The number of scored colonies from the triplicate plates was averaged, and this number was divided by the number of cells plated to obtain a value for the fraction of cells forming colonies. […]

[11] = system: breast cancer cell line HCC1806; assay: 144 hour exposure IC50, HCC1806; type: cell-based; conditions: HCC1806, 144 hours exposure
Experimental: (§10) Additionally these isomeric compounds were also tested by exposing them for 144 hours in the following cell lines: UMSCC10b, Panc-1, UMSCC15s, A2780/C30 and HCC1806.

[12] = system: UMSCC10b/15s, cisplatin-resistant human head-and-neck cancer cell line; assay: Clonogenic assay, UMSCC10b/15s cells; type: cell-based; conditions: 7-day treatment
Experimental: as §1, §8, §9

[13] = system: pancreatic cell line Panc-1; assay: 144 hour exposure IC50, Panc-1; type: cell-based; conditions: Panc-1, 144 hours exposure
Experimental: as §10

[14] = system: head and neck cancer cell line UMSCC10b; assay: 144 hour exposure IC50, UMSCC10b; type: cell-based, human
Experimental: as §10

[15] = Maximum tolerated dose toxicity in ICR (CD-1) mice; type: in vivo; conditions: dose of 60 mg/kg
Experimental: Escalating doses were administered from 10 mg/kg to 100 mg/kg in 4-5 week-old female ICR (CD-1) mice, Taconic (Rensselaer, N.Y.). The mice had body weights between 15 g and 24 g. The mice were injected with one of the phosphaplatins every other day in a three-dose regimen. Total body-weight loss of 20% or more, unthrifty appearance, failure to gain weight, other observable health issues, departures from normal behaviors, or death, were considered an adverse event.

[16] = system: human ovarian cancer OVCAR-10 xenograft; assay: In vivo efficacy, OVCAR-10 mouse xenograft; design: species or system mice; conditions: 60 mg/kg qodx3, time to tumor size 1000 mm^3, compared with control
Experimental: Stable human clonal ovarian cancer cell lines OVCAR-10 and head and neck cancer UMSCC10b were grown separately in cell culture until 80-90% confluency was reached. Trypsin (GIBCO/BRL, Grand Island, N.Y.) was used to detach adherent cells. Trypsinized cells were thoroughly washed with PBS (Phosphate Buffered Saline) to remove trypsin. Efficacy of phosphaplatin compounds were evaluated by subcutaneously implanting human OVCAR-10 and UMSCC-10b xenograft in SCID Hairless OutBred, SHO-Prkdc^scidHr^hr, (Charles River Labs, Wilmington, Mass.) mice, NIH (NIH III: NIHBNX-F; NIHS-Lystbg Foxnlnu Btkxid, 4-week old female, Taconic (Rensselaer, N.Y.) mice.
Female SCID/NIH mice 4-5 weeks old were acclimated for one week before initiation of efficacy trials. Cancer cells were re-suspended in PBS and all mice except for negative control mice were injected subcutaneously with from 1×10^6 cells/0.10 mL to 5×10^6 cells/0.10 mL in PBS. The tumor size was evaluated as a function of time. The mice were examined daily for tumor growth. Tumors were measured using digital calipers. The tumor volume was calculated by the formula (W^2×L)/2, where W is the tumor measurement at the widest point, and L is the tumor dimension at the longest point, where the volume of the tumor in mm^3 is equivalent to the weight in mg.
After approximately 2 weeks of the subcutaneous injection of cancer cells, the tumors that had reached a distinguishable tumor sizes (approximately 100 mm^3 to 200 mm^3), phosphaplatin compounds of desired doses were administered intra-peritoneally. These administrations were done one time on day 1, once on day 3, and once on day 5.
Each group of xenograft mice was treated with phosphaplatin compounds, and a matched set was treated with vehicle/placebo (PBS solution) and mock injection (as a control for stress response). […] The xenograft SCID mice/NIH were monitored every day for any adverse events in their health by measuring weight loss/gain and food consumption. Measurements were stopped and the study was ended when the tumor size exceeded 3000 mm^3. […]

[17] = 40 mg/kg, three doses on alternate days

Compound	IC50 [1]	IC50 ([2]; A2780, 1 hour treatment)	IC50 [3]	IC50 [4]	IC50 [5]	IC50 [6]	IC50 [7]	IC50 [8]	IC50 [9]	IC50 ([2]; A2780, 24 hours treatment)	also measured
trans-(±)-1,2-cyclohexanediamine-trans-dihydroxo(pyrophosphato) platinum(IV) [trans-(±)-pyrodach-4]	155 ± 20 µM	180 µM and 170 µM	12.3 µM	14.6 µM	12.2 µM	14.4 µM	20 µM	14.6 µM	23.2 µM	–	upregulation of BAX (BAX): up to 4 fold; down regulation of VEGFR (VEGFR): up to 50%; upregulation of FAS (FAS): up to 25 fold; upregulation of PUMA (PUMA): up to 5 fold; gross log cell kill (Ovarian tumor; [17]): greater than 3; log net cell kill (Ovarian tumor; [17]): greater than 2
NC1CCCCC1N.O=P([O-])(O)OP(=O)([O-])O.[Pt+2] (racemic) [trans-(±)-pyrodach-2, trans-(±)-1,2-cyclohexanediamine(pyrophosphato) platinum(II)]	48 ± 5 µM	22 ± 4 µM	9.4 µM	8.3 µM	11.1 µM	4.6 µM	24.5 µM	10.1 µM	11.8 µM	2.4 ± 0.2 µM	IC50 [10]: 12.2 µM; IC50 [11]: > 30 µM; IC50 [12]: 5 µM; IC50 [13]: 18.5 µM; IC50 [14]: 8.9 µM
N.N.O=C([O-])C1(C(=O)[O-])CCC1.[Pt+2] [carboplatin]	> 200 µM	90 µM	–	–	–	26.7 µM	–	–	–	> 60 µM	death [15]: 33%; percent increased life-span (% ILS) [16]: about 125%; population died (Ovarian tumor; 60 mg/kg dose): more than 50%; log cell kill values (Ovarian tumor; 60 mg/kg, three doses on alternate days): less than 2
